The values below come from patent publication US20140322242A1, “MATERIALS AND METHODS FOR THE PREVENTION AND TREATMENT OF CANCER” (Icahn School of Medicine at Mount Sinai, priority 2010, published 2014).

Data set [1] concerns PC-3luc cells. The data set is described as follows: Xenogeneic orthotopic PC-3luc prostate tumor model in nude mice (bioluminescence, immunofluorescence). Type of data set: in vivo, Balb/c nu/nu mice. The settings on record: for distant metastases / carbachol-induced lymph node invasion: antagonist in combination with carbachol. As for the experimental part:
The microenvironment of a developing tumor is important in cancer development and metastasis. A xenogeneic orthotopic model of prostate cancer was established to provide a minimally disruptive microenvironment for this cancer in live mice.
In vivo and ex vivo bioluminescence imaging was performed and analyzed using an IVIS imaging system 200 series (Xenogen, Caliper Life Sciences, Hopkinton, Mass.). Bioluminescent signal was induced by i.p. injection of D-luciferin (150 mg/kg in PBS) 8 minutes prior to in vivo imaging. For ex vivo imaging, D-luciferin (300 mg/kg) was injected 7 minutes prior to necropsy. Organs of interest were immersed in a solution of D-luciferin at 150 mg/ml.
(§1) Upon sacrifice, mouse prostate tissues were immersed in OCT medium (Tissue Teck®). Five-micrometer frozen sections were stained with hematoxylin-eosin (H&E). For immunofluorescence, unstained prostate sections were fixed with acetone or methanol. For staining of nerves, fixed sections were incubated in H2O2 to quench endogenous peroxidase and non-specific binding was blocked with goat serum in bovine serum albumin (BSA) solution and the avidin/biotin blocking kit (Vector Laboratories, Burlingame, Calif.). Sections were incubated with a rabbit anti-TH antibody (Millipore, Billerica, Mass.), or anti-VAChT antibody (Phoenix Pharmaceuticals, Inc., Burlingame, Calif.), or anti-NF-L antibody (Millipore), or anti-NF-H antibody (Abcam, Cambridge, Mass.) and then with a secondary biotinylated goat anti-rabbit antibody (Vector Laboratories). Signal was amplified using the Vectastain Elite ABC Kit (Vector Laboratories) and visualized using the Tyramide Signal Amplification kit for TRITC (PerkinElmer, Boston, Mass.).
(§2) For proliferative cell quantification, sections were incubated with a rabbit polyclonal anti-Ki67 (Abcam) and then Alexafluor 568-conjugated goat anti-rabbit antibody (Molecular Probes, Carlsbad, Calif.).
(§3) Human tumors were induced by orthotopic surgical implantations of 1×10^5 PC-3luc cells into six- to eight-week-old Balb/c nu/nu mice. Ten days after cell injection (day 0), the animals were randomized into the different groups and received the appropriate drugs, as indicated. 6OHDA or vehicle was injected at day 0 (100 mg/kg) and day 2 (250 mg/kg), and human recombinant G-CSF treatment was begun on day 4 (Amgen, 250 μg/kg/day, every 12 hours, 8 divided doses, i.p., in 5% dextrose). A second cycle was administered eight weeks after graft and animals were sacrificed three weeks after the last injection of G-CSF (i.e., 11 weeks after graft). In other experiments, 2×10^5 PC-3luc cells were orthotopically injected into nu/nu Adrβ2^tm1Bkk/J+/+ Adrβ3^tm1Lowl/J+/+, nu/nu Adrβ2^tm1Bkk/J−/−, nu/nu Adrβ3^tm1Lowl/J−/− and nu/nu Adrβ2^tm1Bkk/J−/− Adrβ3^tm1Lowl/J−/−. In selected experiments, 2×10^6 LNCaP-luc cells were injected in nu/nu Adrβ2^tm1Bkk/J+/+ Adrβ3^tm1Lowl/J+/+ and nu/nu Adrβ2^tm1Bkk/J−/− Adrβ3^tm1Lowl/J−/− mice. For the transgenic model, one-, two- or five-month-old c-Myc mice were injected with 6OHDA or surgically sympathectomized according to protocols described above and sacrificed 30 days later.
A second cycle was administered at week four and mice were sacrificed one week later (five weeks after graft). For cholinergic experiments using the nu/nu Chrm1^tm1Stl+/+ and nu/nu Chrm1^tm1Stl−/− animals, mice were sacrificed at week six post-graft. For the survival study, grafted mice were treated as described hereinabove from week 4, every two weeks for up to 25 weeks or until death. Disease progression was monitored by bioluminescence scanner. […] One week later, mice received a second round of treatment and were then sacrificed at month four.

The test system of data set [2] is PC-3luc cells. The data set is described as follows: PC-3luc cell proliferation / cytotoxicity in vitro (MTT). Type of data set: cell-based, human. As for the experimental part: A cell proliferation assay was performed on human PC-3 prostate tumor cells after 96 hours of treatment by G-CSF at three different concentrations by comparison with human leukemic cells (HL-60 and U937). Cell proliferation was quantified by a cell viability assay using MTT (3-[4,5-dimethylthiazole-2-yl]-2,5-diphenyltetrazolium bromide (Sigma). The percentage of viable cells was calculated by comparing the optical density (OD) of the treated samples with those incubated with vehicle. Methods were carried out as described by Magnon, et al., Cancer Res, 65, 4353-61 (2005); incorporated herein by reference in its entirety.

The test system of data set [3] is prostate cancer in cMyc mice. The data set is described as follows: cMyc transgenic mouse model of prostate cancer (mPIN, invasive cancer zones). Type of data set: in vivo. As for the experimental part:
To investigate further the activity of G-CSF on tumor development using a genetic mouse model, transgenic mice expressing human cMyc under the ARR2/probasin promoter expressed specifically in the prostate (hereafter cMyc mice) were evaluated. This transgenic model leads to the complete penetrance of mouse prostatic intraepithelial neoplasia (mPIN) from postnatal week 2, progressing to invasive adenocarcinomas between 3 to 6 months of age (FIG. 2m). […] The development of invasive cancer was associated with a broad infiltration of NF-L+ neo-fibers by comparison with control animals (FIG. 2o). Thus, the increased tumor/normal epithelial cell proliferation following G-CSF administration is associated with (i.e., is correlated to) the development of new nerve fibers in the primary tumor. Accordingly, a method of treating cancer in a subject such as a human patient or non-human animal (e.g., non-human mammal) comprises administering a prophylactically or therapeutically effective amount of an inhibitor of NF-L+ neo-fibers. In some embodiments, the method comprises administering a prophylactically or therapeutically effective amount of an inhibitor of G-CSF.
as §3
To ascertain the role of sympathetic innervation in tumor initiation using a genetic model, the effect of chemical or surgical sympathectomy on prostate cancer in cMyc mice was evaluated. For this study, transgenic cMyc mice expressing human c-Myc under the ARR2/probasin promoter expressed specifically in the prostate (AAR2/Pbsn-MYC) were used. This transgenic model leads to the complete penetrance of mouse prostatic intraepithelial neoplasia (mPIN) from postnatal week 2, progressing to invasive adenocarcinomas between 3 to 6 months of age (FIG. 6e). To this end, mice were chemically sympathectomized one month prior to histological analyses.
Disease progression was monitored by bioluminescence scanner. […] Mice were sacrificed at week 10.

The subject of the next data set is healthy prostate. In words: Healthy (tumor-free) prostate: nerve density, epithelial cell proliferation, apoptosis, Chrm1 expression. Type of data set: in vivo, mouse. The settings on record: 6OHDA; TUNEL. As for the experimental part: as §1, §2
For apoptotic cell quantification, prostate sections were fixed with 4% paraformaldehyde (PFA) and stained with the Mebstain Apoptosis Kit according to manufacturer's recommendations (MBL International, Woburn, Mass.). Basement membranes were stained with a rat polyclonal anti-α2laminin antibody (Abcam) followed by Alexafluor647-conjugated goat anti-rat antibody (Molecular Probes).
Gene expression levels were analyzed from RNA extracted, using the TRIzol solution (Invitrogen, Carlsbad, Calif.), from PC-3, DU145, LNCaP cell lines or prostates from Balb/c nu/nu mice by quantitative real-time PCR, as described previously (Mendez-Ferrer, Nature, 452:442-447 (2008)).

A short description of data set [4]: Intravital microscopy hemodynamic measurements after carbachol. Type of data set: in vivo, mice. As for the experimental part:
Centerline red blood cell velocities were measured for 10 venules and 10 arterioles in two independent experiments. Wall shear rates (γ) were calculated based on Poiseuille's law for a Newtonian fluid, γ=2.12 (8Vmean)/Dv or Da, where Dv and Da are the venular or arterial diameters, the mean blood flow velocity (Vmean) was estimated as VRBC/1.6, and 2.12 is a median empirical mean, correction factor obtained from actual velocity profiles measured in microvessels in vivo. The blood flow rate was calculated from the formula: Vmean π D^2/4.

Data set [5] can be described thus: Echocardiography cardiac function after carbachol. Type of data set: in vivo. The settings on record: carbachol four consecutive days; n = 4 mice. On the procedure:
For imaging, animals were anesthetized with a mixture of O2/1.5% isoflurane and then positioned ventral side up on the platform of the imaging system. ECG signal and respiratory rate were captured through the electrode pads on the advanced physiological monitoring unit and transmitted to the Vevo system for monitoring. Cardiac examinations were performed in two dimensional images using the parasternal long axis (PLAX) view in B-Mode with a 1MS550D 40 MHz probe. Two cineloops (300 frames/cineloop) were recorded per animal and then analyzed on two diastoles and two systoles per animal. The endocardial stroke volume and endocardial diastolic volume were determined to calculate the ejection fraction.

The mark [6] stands for this setting: one hour after carbachol injection, n = 10 vessels.

`NCCc1cc(O)c(O)cc1O` [6OHDA, 6-hydroxydopamine]: the “TH+ neural fibers expressing NF-L (basal neural layer underneath prostate epithelium)” value in the data set on PC-3luc cells [1] (6OHDA 100 and 250 mg/kg) is given as “specifically destroyed”. For the same molecule, in the data set with PC-3luc cells [1] (6OHDA treatment), the “NF-L and NF-H positive fibers (parasympathetic) surrounding epithelial cells” value is “without affecting”. For the same molecule, in the data set on PC-3luc cells [1] (6OHDA-induced sympathectomy), the metastases result is “did not yield any detectable metastases”. Further, in the data set on PC-3luc cells [1] (6OHDA-induced sympathectomy, bioluminescence, TUNEL), the “development of the primary tumors” value is listed as “dramatically prevented”. Besides, the “direct cytotoxicity on tumor cells in vitro” value in the data set with PC-3luc cells [2] (6OHDA, cultured PC-3luc cells) is “no direct cytotoxicity”. The “percentage of mPIN” value in data set [3] (denervation at 1 month of age) was “significantly reduced”. The “prevalence of mPIN and invasive cancer zones” value in data set [3] (sympathectomy two months or more after birth) was “not significantly altered”. Also, the “apoptosis of epithelial cells in the healthy prostate” value in the data set on healthy prostate is recorded as “triggered in vivo apoptosis”.
Consider `C[N+](C)(C)CCOC(N)=O.[Cl-]` [carbachol, carbamoylcholine chloride], for which, in the data set on PC-3luc cells [1] (carbachol alone, week 5), the “invasion of inguinal lymph nodes” value is “significantly enhanced”. Besides, the “proliferation of PC-3luc cells orthotopically implanted into the prostate (Ki67)” value with PC-3luc cells [1] (carbachol injections) is “induced the proliferation”. Also, the “tumor cell dissemination to distant organs compared to the control group” value in the data set with PC-3luc cells [1] (carbachol, ex vivo bioluminescence) was “about 6 fold”. Further, the “primary tumors (ex vivo bioluminescence)” value in the data set on PC-3luc cells [1] (carbachol, five weeks post-grafting) is recorded as “depopulated”. In the data set on PC-3luc cells [2] (carbachol), the “proliferation of PC-3luc cells in vitro” value was “did not induce any proliferation”. Besides, the “incidence of mPIN” value in data set [3] (carbachol into three-month-old mice) was “significantly increased”. For the same molecule, the “transition of neoplastic lesions to invasive carcinoma” value in data set [3] (carbachol, four months of age) is recorded as “accelerated”. Also, the vascular hemodynamics result in data set [4] (carbachol-treated mice) is “not altered”. Moreover, in data set [4] (setting [6]), the “Arterioles Blood Flow rate” value turned out to be 1737 ± 148 nL/s, the “Arterioles Diameter” value is given as 38.1 ±0.8 μm, the “Arterioles RBC velocity” value is reported as 2.47 ± 0.22 mm/sec and the “Arterioles Wall shear rate (g)” value is given as 698 ± 69. Moreover, in data set [4] (setting [6]), the “Venules Blood Flow rate” value worked out at 863 ± 128 nL/s, the “Venules Diameter” value amounted to 33.7 ± 1.3 μm, the “Venules RBC velocity” value worked out at 1.48 ± 0.19 mm/sec and the “Venules Wall shear rate (g)” value turned out to be 469 ± 59. Also, in data set [5], the Ejection fraction was 65 ± 4%; the “Endocardial volume, diastole” value amounted to 34.4 ± 7.9 µL; the “Endocardial volume, systole” value amounted to 11.7 ± 3.0 µL.
As to `CN1CCN(CC(=O)N2c3ccccc3C(=O)Nc3cccnc32)CC1` [pirenzepine], the distant metastases entry in the data set on PC-3luc cells [1] is given as “inhibited”. In addition, the “carbachol-induced lymph node invasion” value in the data set on PC-3luc cells [1] (week 5) was “inhibited”. In addition, the “carbachol-induced tumor cell proliferation (Ki67)” value in the data set with PC-3luc cells [1] (pirenzepine with carbachol) was “specifically blocked”. For the same molecule, the carbachol-induced malignancy progression entry in data set [3] (pirenzepine with carbachol) is recorded as “completely inhibited”.
Regarding `CN1[C@@H]2C[C@@H](OC(=O)[C@H](CO)c3ccccc3)C[C@H]1[C@@H]1O[C@@H]12` [scopolamine], in the data set with PC-3luc cells [1], the distant metastases entry is “inhibited”. Moreover, the “carbachol-induced lymph node invasion” value in the data set on PC-3luc cells [1] (week 5) is “inhibited”.
